Common to all, as to assay: Penicillin MIC (E-test / population analysis)
Holding throughout (assay type): cell-based

For assay [1], the system named is S. pneumoniae Sp2150, disrupted murMN operon. Particulars: Streptococcus pneumoniae, strain Sp2150 (serotype 9/14, French/Spanish).
Assay [2] has as its system S. pneumoniae Sp2150, intact murMN operon. As to conditions: Streptococcus pneumoniae, strain Sp2150 (serotype 9/14, French/Spanish). The procedure:
(§1) Transformation, population analysis profiles and determination of penicillin resistance level S. pneumoniae R36A and Pen6 were transformed essentially according to published procedures (8). To induce competence, synthetic CSPα was added to the medium at a concentration of 250 ng/ml. The competent cells were then incubated for 30 min at 30° C. in the presence of plasmidic DNA followed by the addition of 2 ml of C+Y medium and a 2 h incubation at 37° C. Transformants were selected on blood agar plates (TSA+3% (v/v) sheep blood) containing 1 μg/ml erythromycin. Population analysis profiles (PAPs) were determined by plating serial dilutions of early stationary phase cultures on plates of TSA containing 5% (v/v) of sheep blood (Micropure Medical Inc, White Bear Lake, Minn.), and different concentrations of Penicillin G (Sigma) (0, 0.01, 0.03, 0.06, 0.125, 0.25, 0.5, 1, 2, 4, 8, 16 ([…]). The PAPs were done with and without the presence of […] erythromycin in the medium. Plates were incubated at 37° C. in a 5% CO2-in-air atmosphere for 24 h and the number of bacteria capable of forming colonies in the presence of various penicillin concentrations was plotted against the concentration of penicillin in the agar medium. Penicillin resistance levels (minimal inhibitory concentration, MIC) were determined by the E-test following the manufacturers guidelines (AB Bidosk, Sweden).

The subject of assay [3] is S. pneumoniae R36A, intact murMN operon. Particulars: Streptococcus pneumoniae, strain R36A (laboratory strain). The procedure: as §1
Assay [4] relates to S. pneumoniae Hun663, intact murMN operon. Particulars: Streptococcus pneumoniae, read-out: Penicillin MIC. The procedure: as §1
The subject of assay [5] is S. pneumoniae Ala1, intact murMN operon. As to conditions: Streptococcus pneumoniae, strain Ala1 (serotype 6B, Alaskan). The procedure: as §1
Assay [6] concerns S. pneumoniae Clev2, intact murMN operon. As to conditions: Streptococcus pneumoniae, read-out: Penicillin MIC. The procedure:
as §1

For assay [7], the system named is S. pneumoniae Pen6, intact murMN operon. As to conditions: Streptococcus pneumoniae, read-out: Penicillin MIC. The procedure:
as §1

For assay [8], the system named is S. pneumoniae 8249, intact murMN operon. As to conditions: Streptococcus pneumoniae, strain 8249 (serotype 19A, South African). The procedure:
as §1

Assay [9] relates to S. pneumoniae Clev2, disrupted murMN operon. As to conditions: Streptococcus pneumoniae, strain Clev2 (serotype 23F, Spanish/USA).
Assay [10] has as its system S. pneumoniae Ala1, disrupted murMN operon. Particulars: Streptococcus pneumoniae, strain Ala1 (serotype 6B, Alaskan).
Assay [11] concerns S. pneumoniae Hun663Tr4Tr5, disrupted murMN operon. As to conditions: Streptococcus pneumoniae, strain Hun663Tr4Tr5 (transformant).
Assay [12] concerns S. pneumoniae Pen6, disrupted murMN operon. As to conditions: Streptococcus pneumoniae, strain Pen6 (transformant). The procedure: (§2) Inactivation of the murMN operon. For gene disruption experiments, internal fragments of murM, from the bacterial strains R36A and Pen6, were amplified by PCR and cloned into pJDC9 (9). For amplification of the internal fragment of murM from R36A the following primers were used 5′-[…]-3′ (SEQ ID NO: 26) and 5′-[…]-3′ (SEQ ID NO: 27) giving origin to the plasmid pZOO5. Amplification of the internal fragment of murM from Pen6 was carried out using the primers 5′-[…]-3′ (SEQ ID NO:28) and 5′-[…]-3′ (SEQ ID NO: 29) giving origin to the plasmid pZOO6. For inactivation of the murMN operon in R36A and in Pen6, competent cells of R36A and Pen6 were transformed respectively with plasmids pZOO5 and pZOO6 (FIG. 1B).
(§3) Transformation, population analysis profiles and determination of penicillin resistance level S. pneumoniae R36A and Pen6 were transformed essentially according to published procedures (8). To induce competence, synthetic CSPα was added to the medium at a concentration of 250 ng/ml. The competent cells were then incubated for 30 min at 30° C. in the presence of plasmidic DNA followed by the addition of 2 ml of C+Y medium and a 2 h incubation at 37° C. […] Penicillin resistance levels (minimal inhibitory concentration, MIC) were determined by the E-test following the manufacturers guidelines (AB Bidosk, Sweden).

Assay [13] concerns S. pneumoniae R36A, disrupted murMN operon. As to conditions: Streptococcus pneumoniae, strain R36A (laboratory strain). The procedure:
as §2, §3

These results are taken from patent US20050165224A1, “Inhibition of penicillin resistance in s. pneumoniae” (priority 2000, published 2005).

SMILES strings stand for the structures. In brackets after ≈: the same amount, converted by molar mass.

Broadly, the MIC is the smallest concentration in the dilution series that meets the test's criterion for growth inhibition. As to `CC1(C)S[C@@H]2[C@H](NC(=O)Cc3ccccc3)C(=O)N2[C@H]1C(=O)O` [Penicillin, Penicillin G], the MIC came out at 0.032 mg/L (≈ 0.0957 µM) in [1]; 1 mg/L (≈ 2.99 µM) in [2]; 0.023 mg/L (≈ 0.0688 µM) in assay [3]; 1.6 mg/L (≈ 4.78 µM) in [4]; 0.12 mg/L (≈ 0.359 µM) in assay [5]; 1.6 mg/L (≈ 4.78 µM) in assay [6]. In addition, the MIC in assay [7] was 6 mg/L (≈ 17.9 µM); in assay [8], 6 mg/L (≈ 17.9 µM); in assay [9] it was 0.016 mg/L (≈ 0.0478 µM); in assay [10], 0.064 mg/L (≈ 0.191 µM); in assay [11] it was 0.032 mg/L (≈ 0.0957 µM); in assay [12] it was 0.032 mg/L (≈ 0.0957 µM). The compound further yielded an MIC in assay [13] of 0.023 mg/L (≈ 0.0688 µM).
